Measured values from patent US7217511B2, “Methods of increasing antibiotic production in Streptomyces by deletion of the scbA gene” (Plant Bioscience Limited, priority 2000, dated 2007).

Experiments:
S. coelicolor M145 = test system: S. coelicolor M145
Protocol: (§1) Bioassay using spore suspension of M145(top), M751(left bottom) and M752(right bottom) as indicator strain and spotted with 1 μg of SCB1. The plates were incubated at 30° C. for 20 h (left panel) or 40 h (right panel).
(§2) γ-butyrolactones were isolated from liquid or solid media by extracting the culture supernant or the agar with ethylacetate. The ethylacetate was evaporated and the sample was resuspended in 100% methanol for use in a bioassay or for HPLC analysis. Bioassay and HPLC analysis were conducted as described previously (Takano et al., 2000).

[1] = test system: S. coelicolor M751 (ΔscbA)
Protocol: as §1, §2

[2] = test system: S. coelicolor M752 (ΔscbR)
Protocol: as §1, §2

[3] = test system: S. coelicolor M751 (ΔscbA); remark: listed apart in the source

Sequence of ScbR (as listed by the source): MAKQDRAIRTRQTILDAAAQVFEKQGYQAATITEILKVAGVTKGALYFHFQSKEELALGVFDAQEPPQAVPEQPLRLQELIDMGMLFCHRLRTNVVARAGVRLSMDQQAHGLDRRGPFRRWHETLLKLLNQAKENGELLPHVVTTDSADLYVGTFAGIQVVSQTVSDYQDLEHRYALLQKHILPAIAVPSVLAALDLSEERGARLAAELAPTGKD

Compound	Response to exogenous SCB1 (antibiotic production in lawn) (S. coelicolor M145)	Effect of high concentrations of SCB1 on antibiotic production (lighter halo around the point of application) [1]	Response to exogenous SCB1 (antibiotic production in lawn) [2]	Level of scbR transcription [3]	scbA transcription [3]	Formation of the DNA-protein complex (DNA-binding activity of ScbR) (ScbR)
CC(C)CCCC[C@@H](O)[C@@H]1C(=O)OC[C@H]1CO [SCB1]	responded in the expected way	inhibitory effect	did not respond	marked increase	not restored	
2-isocaryloyl-3R-hydroxymethyl-γ-butyrolactone [A-factor]						failed to inhibit
